Source: patent US6706740B2, “Fungicidal heterocyclic aromatic amides and their compositions, methods of use and preparation” (Dow AgroSciences LLC, priority 1999, dated 2004)
Read-outs that look alike come from different tables or passages of the source.

Assays:
[1] = test system: Magnaporthe grisea (Pyricularia oryzae—PYRIOR); experiment: microbe, parasite or virus in culture; type: cell-based; details: Pyricularia oryzae, read-out: PYRIOR in vitro Growth Inhibition
[2] = test system: Rhizoctonia solani (RHIZSO); experiment: microbe, parasite or virus in culture; type: cell-based; details: Rhizoctonia solani, read-out: RHIZSO in vitro Growth Inhibition
[3] = test system: Mycosphaerella graminicola (Septoria tritici—SEPTTR); experiment: In vitro fungal growth inhibition, Mycosphaerella graminicola (SEPTTR); type: cell-based; details: Zymoseptoria tritici, read-out: SEPTTR in vitro Growth Inhibition
[4] = test system: Stagonospora nodorum (Leptosphaeria nodorum—LEPTNO); experiment: In vitro fungal growth inhibition, Stagonospora nodorum (LEPTNO); type: cell-based; details: Leptosphaeria, read-out: LEPTNO in vitro Growth Inhibition
Ustilago maydis (USTIMA) = experiment: microbe, parasite or virus in culture; type: cell-based; details: Mycosarcoma maydis, read-out: USTIMA in vitro Growth Inhibition
[5] = test system: Phytophthora infestans (PHYTIN); experiment: microbe, parasite or virus in culture; type: cell-based; details: Phytophthora infestans, read-out: PHYTIN in vitro Growth Inhibition
[6] = test system: Phytophthora infestans—PHYTIN; experiment: whole plant or invertebrate; type: in vivo; details: Phytophthora, in Solanum lycopersicum, 24 h, read-out: PHYTIN in vivo 1 Day Protectant
[7] = test system: Puccinia recondita—PUCCRT; experiment: Brown Rust of Wheat, in vivo whole plant, 24 Hour Protectant; details: Puccinia, control of fungal infection vs untreated plants, read-out: PUCCRT in vivo 1 Day Protectant
Erysiphe graminis—ERYSGT = experiment: Powdery Mildew of Wheat, in vivo whole plant, 24 Hour Protectant; details: control of fungal infection vs untreated plants; for pest or weed control at 100 ppm: Erysiphe, read-out: ERYSGT in vivo 1 Day Protectant
Septoria tritici—SEPTTR = experiment: Leaf Blotch of Wheat, in vivo whole plant, 24 Hour Protectant; details: Zymoseptoria tritici, 24 h, control of fungal infection vs untreated plants, read-out: SEPTTR in vivo 1 Day Protectant
[8] = test system: Leptosphaeria nodorum—LEPTNO; experiment: Glume Blotch of Wheat, in vivo whole plant, 24 Hour Protectant; details: control of fungal infection vs untreated plants; for pest or weed control at 100 ppm: Leptosphaeria, read-out: LEPTNO in vivo 1 Day Protectant
[9] = 100 ppm spray, 24 hour protectant, wheat
[10] = wheat plants sprayed at 100 ppm, inoculated after 24 hours
[11] = 100 ppm spray, wheat, 24 hour protectant

SMILES | inhibition at 25 ppm [1] | inhibition at 25 ppm [2] | inhibition at 25 ppm ([3]; 25 ppm in growth medium) | inhibition at 25 ppm ([4]; 25 ppm in growth medium) | inhibition at 25 ppm (Ustilago maydis (USTIMA)) | inhibition at 25 ppm [5] | pest or weed control at 100 ppm [6] | pest or weed control at 100 ppm [7, 9] | pest or weed control at 100 ppm (Erysiphe graminis—ERYSGT; [9]) | pest or weed control at 100 ppm (Septoria tritici—SEPTTR; [9]) | pest or weed control at 100 ppm [8, 9] | melting point | inhibition at 25 ppm ([3]; 25 ppm in the growth medium) | inhibition at 25 ppm ([4]; 25 ppm in the growth medium) | pest or weed control at 100 ppm [7, 10] | pest or weed control at 100 ppm (Erysiphe graminis—ERYSGT; [10]) | pest or weed control at 100 ppm (Septoria tritici—SEPTTR; [10]) | pest or weed control at 100 ppm [8, 10] | pest or weed control at 100 ppm [7, 11] | pest or weed control at 100 ppm (Septoria tritici—SEPTTR; [11]) | also measured
COc1ccnc(C(=O)N[C@H]2CC[C@@H](Oc3ccc(C(F)(F)F)cc3)CC2)c1O [Compound 271] | > 80% | > 80% | > 80% | > 80% | > 80% | > 80% | 25 to 74% | < 25% | < 25% | 25 to 74% | 25 to 74% | 181 to 183 °C (dec.) | – | – | – | – | – | – | – | – | –
COc1cccc(CNC(=O)c2ncccc2O)c1 [Compound 225] | < 80% | < 80% | < 80% | < 80% | < 80% | > 80% | < 25% | < 25% | < 25% | < 25% | < 25% | 41 to 43 °C | – | – | – | – | – | – | – | – | –
O=C(NCC1CCCc2ccccc21)c1nc(Br)ccc1O (stereo not drawn) [Compound 485] | < 80% | < 80% | – | – | < 80% | < 80% | < 25% | – | – | – | – | 140 to 142 °C | < 80% | < 80% | < 25% | < 25% | < 25% | < 25% | – | – | –
CSc1nnc(C(=O)NC2CC(C)(C)CC(C)(C)C2)c(O)n1 [Compound 545] | < 80% | < 80% | – | – | < 80% | > 80% | 25 to 74% | – | – | – | – | 265 to 268 °C | < 80% | < 80% | 25 to 74% | < 25% | 25 to 74% | 25 to 74% | – | – | –
COc1ccnc(C(=O)Nc2cccc(Sc3ccc(C(F)(F)F)cc3)c2)c1O [Compound 444] | < 80% | < 80% | < 80% | < 80% | < 80% | < 80% | < 25% | – | – | – | – | 133 to 134 °C | – | – | – | – | – | – | 25 to 74% | 25 to 74% | pest or weed control at 100 ppm (Erysiphe graminis—ERYSGT; [11]): < 25%; pest or weed control at 100 ppm [8, 11]: 25 to 74%
O=C(NCc1ccc(Cl)c(Cl)c1)c1ncccc1O [Compound 221] | > 80% | < 80% | > 80% | < 80% | < 80% | > 80% | < 25% | < 25% | < 25% | < 25% | < 25% | 100 to 101 °C | – | – | – | – | – | – | – | – | –
Cc1ccnc(C(=O)NC2CC(C)(C)CC(C)(C)C2)c1O [Compound 236] | < 80% | < 80% | < 80% | > 80% | < 80% | < 80% | < 25% | < 25% | < 25% | < 25% | < 25% | 42 to 45 °C | – | – | – | – | – | – | – | – | –
CC(C)C(=O)O[C@H]1[C@H](C)OC(=O)[C@@H](NC(=O)c2cnn(C)c2O)COC(=O)[C@@H]1Cc1ccccc1 [Compound 556] | < 80% | < 80% | – | – | < 80% | > 80% | < 25% | – | – | – | – | 195 °C (dec.) | < 80% | < 80% | 25 to 74% | < 25% | < 25% | 25 to 74% | – | – | –
COc1ccnc(C(=O)Nc2ccc(Oc3ccc(C(F)(F)F)cc3)cn2)c1O [Compound 470] | > 80% | > 80% | – | – | < 80% | < 80% | < 25% | – | – | – | – | 173 to 175 °C | > 80% | > 80% | 25 to 74% | 25 to 74% | 25 to 74% | 25 to 74% | – | – | –
COc1ccnc(C(=O)Nc2ccc(Oc3ccc(OC(=O)C(C)C)cc3)cc2)c1O [Compound 436] | < 80% | < 80% | < 80% | < 80% | < 80% | < 80% | < 25% | – | – | – | – | 109 to 110.5 °C | – | – | – | – | – | – | < 25% | 25 to 74% | pest or weed control at 100 ppm (Erysiphe graminis—ERYSGT; [11]): < 25%; pest or weed control at 100 ppm [8, 11]: 25 to 74%
COc1ccnc(C(=O)NC2COC(=O)[C@H]3CCCC[C@@H]3C(=O)OC2)c1O [Compound 377] | < 80% | < 80% | < 80% | < 80% | < 80% | > 80% | < 25% | – | – | – | – | 234 to 235 °C | – | – | – | – | – | – | < 25% | < 25% | pest or weed control at 100 ppm (Erysiphe graminis—ERYSGT; [11]): < 25%; pest or weed control at 100 ppm [8, 11]: 25 to 74%
COc1ccnc(C(=O)N[C@H]2COC(=O)[C@H](Oc3ccccc3)[C@@H](OC(=O)C(C)C)[C@H](C)OC2=O)c1O [Compound 403] | < 80% | < 80% | > 80% | > 80% | < 80% | < 80% | < 25% | – | – | – | – | 194 to 195 °C | – | – | – | – | – | – | 25 to 74% | 25 to 74% | pest or weed control at 100 ppm (Erysiphe graminis—ERYSGT; [11]): < 25%; LEPTNO in vivo 1 Day Protectant [8, 11]: + +
COc1ccnc(C(=O)N[C@H]2COC(=O)[C@H](CC3CCCC3)[C@@H](OC(=O)C(C)C)[C@H](C)OC2=O)c1O [Compound 402] | < 80% | < 80% | < 80% | > 80% | < 80% | < 80% | < 25% | – | – | – | – | 182 to 184 °C | – | – | – | – | – | – | 25 to 74% | 25 to 74% | ERYSGT in vivo 1 Day Protectant (Erysiphe graminis—ERYSGT; [11]): + +; LEPTNO in vivo 1 Day Protectant [8, 11]: + +
CSc1ccnc(C(=O)NC2COC(=O)[C@H](Cc3ccccc3)[C@@H](OC(=O)C(C)C)[C@H](C)OC2=O)c1O (stereo partly drawn) [Compound 478] | < 80% | < 80% | – | – | < 80% | < 80% | < 25% | – | – | – | – | 184 to 187 °C | < 80% | < 80% | 25 to 74% | < 25% | 25 to 74% | 25 to 74% | – | – | –
COc1cccc(CNC(=O)c2ncccc2O)c1OC [Compound 227] | < 80% | < 80% | < 80% | < 80% | < 80% | > 80% | < 25% | < 25% | < 25% | < 25% | < 25% | 78 to 79 °C | – | – | – | – | – | – | – | – | –
